Experiments:
Type in all cases: cell-based, human
H1693 T8 = test: MTS cell viability assay, H1693 T8 resistant variant vs parental; settings: H1693 T8 and parental
Protocol: (§1) NSCLC lines were treated with paclitaxel+carboplatin combination, given in a ˜2:3 wt/wt ratio, to mirror the clinical dosage values of ˜225 mg/m2 and ˜330 mg/m2, paclitaxel and carboplatin respectively. Note that considering the molecular weights of the two drugs, this translates to approximately a 1 to 3.4 molar ratio. Drugs were given in cycles, following a drug on/drug off treatment scheme. Each cycle consisted of 4-5 days of drug treatment and drug-free culturing for about 1-2 weeks or more to allow the surviving cells to repopulate the plate. […] Untreated parental cells were simultaneously maintained at all times for comparison. Cell viability was assessed in 96-well plates using standard MTS assays (Promega). Treatment duration in MTS assays was 4 days. Drugs were tested in two- or four-fold serial dilutions, totaling 8 different drug concentrations, with 8 replicates per concentration. Response was validated in multiple replicate plates (n≥3).
(§2) Cell viability was assessed by standard MTS assays using Promega's CellTiter reagents. Eight drug concentrations given as two- or four-fold dilutions were tested for each chemotherapeutic agent. In addition, each experiment contained eight replicates per concentration and the entire assay was performed in multiple replicates (n≥3).

HCC4017 T5 = test: MTS cell viability assay, HCC4017 T5 resistant variant vs parental; settings: HCC4017 T5 and parental
Protocol: as §1, §2

H1299 T18 = test: MTS cell viability assay, H1299 T18 resistant variant vs H1299 Parental; settings: for loss of cell viability: H1299 T18 and H1299 Parental; for H1299 T18 SR (Selectivity Ratio): SR = [IC50 of Parental]/[IC50 of Resistant], H1299 T18 vs H1299 Parental; for cross-resistance of paclitaxel+carboplatin resistant variants: resistant variants (FIGS. 2D, 9)
Protocol: as §1, §2

H1355 T16 = test: MTS cell viability assay, H1355 T16 resistant variant vs H1355 Parental; settings: for loss of cell viability: H1355 T16 and H1355 Parental; for H1355 T16 SR (Selectivity Ratio): SR = [IC50 of Parental]/[IC50 of Resistant], H1355 T16 vs H1355 Parental; for cross-resistance of paclitaxel+carboplatin resistant variant: H1355 T16
Protocol: as §1, §2

| Compound | H1299 T18 SR (Selectivity Ratio) (H1299 T18) | H1355 T16 SR (Selectivity Ratio) (H1355 T16) | other results |
| --- | --- | --- | --- |
| Clc1ccc(N/N=C(/c2ccccc2)c2ccccn2)nc1 (single isomer, unassigned) [Z isomer (Inactive)] | 1.1 | 1.0 | loss of cell viability (H1693 T8): No loss in cell viability; loss of cell viability (HCC4017 T5): No loss in cell viability; loss of cell viability (H1299 T18): no viability loss; loss of cell viability (H1355 T16): no loss of cell viability |
| NC1CC1c1ccccc1 (stereo not drawn) [2-PCPA] | 1.3 | 1.8 |  |
| Nc1ncn([C@@H]2O[C@H](CO)[C@@H](O)[C@H]2O)c(=O)n1 [5-azacytidine] | 0.2 | 2.6 |  |
| COc1cc2nc(N3CCCN(C)CC3)nc(NC3CCN(Cc4ccccc4)CC3)c2cc1OC [BIX 01294] | 0.9 | 1.9 |  |
| N.N.O=C([O-])C1(C(=O)[O-])CCC1.[Pt+2] [Carboplatin] | 0.8 | 1.2 |  |
| Nc1nccc2c1ncn2C1C=C(CO)C(O)C1O (stereo not drawn) [DZNep] | 0.5 | 1.7 |  |
| C/C=C1\NC(=O)[C@H]2CSSCC/C=C/[C@H](CC(=O)N[C@H](C(C)C)C(=O)N2)OC(=O)[C@H](C(C)C)NC1=O [Depsipeptide] | 0.05 | 0.03 | cross-resistance of paclitaxel+carboplatin resistant variants (H1299 T18): cross-resistant; cross-resistance of paclitaxel+carboplatin resistant variant (H1355 T16): cross-resistant |
| CC(=O)O[C@@]12CO[C@@H]1C[C@H](O)[C@@]1(C)C(=O)[C@H](O)C3=C(C)[C@@H](OC(=O)[C@H](O)[C@@H](NC(=O)OC(C)(C)C)c4ccccc4)C[C@@](O)([C@@H](OC(=O)c4ccccc4)[C@H]21)C3(C)C [Docetaxel] | 0.03 | 0.002 | cross-resistance of paclitaxel+carboplatin resistant variants (H1299 T18): cross-resistant; cross-resistance of paclitaxel+carboplatin resistant variant (H1355 T16): cross-resistant |
| COc1cccc2c1C(=O)c1c(O)c3c(c(O)c1C2=O)C[C@@](O)(C(=O)CO)C[C@@H]3O[C@H]1C[C@H](N)[C@H](O)[C@H](C)O1 [Doxorubicin] | 0.04 | 0.25 | cross-resistance of paclitaxel+carboplatin resistant variants (H1299 T18): cross-resistant; cross-resistance of paclitaxel+carboplatin resistant variant (H1355 T16): cross-resistant |
| O=C(/C=C/c1cccnc1)NCCCCC1CCN(C(=O)c2ccccc2)CC1 [FK866] | 0.1 | 2.1 |  |
| CC[C@H](C)n1cc(C)c2c(C(=O)NCc3c(C)cc(C)[nH]c3=O)cc(-c3ccc(N4CCNCC4)nc3)cc21 [GSK 126] | 1.0 | 0.8 |  |
| CCOC(=O)CCNc1cc(N2CCc3ccccc3CC2)nc(-c2cccnc2)n1 [GSK-J5] |  |  | loss of cell viability (H1299 T18): no effect on cell viability; loss of cell viability (H1355 T16): no loss of cell viability |
| CCc1c2c(nc3ccc(OC(=O)N4CCC(N5CCCCC5)CC4)cc13)-c1cc3c(c(=O)n1C2)COC(=O)[C@]3(O)CC [Irinotecan] | 1.1 | 2.7 |  |
| Cc1sc2c(c1C)C(c1ccc(Cl)cc1)=N[C@@H](CC(=O)OC(C)(C)C)c1nnc(C)n1-2 [JQ1] | 0.6 | 6.6 |  |
| CN(C)c1ccc(C(=O)NCCCCCCC(=O)NO)cc1 [M344] | 1.1 | 1.8 |  |
| NC1(c2ccc(-c3nc4ccn5c(=O)[nH]nc5c4cc3-c3ccccc3)cc2)CCC1 [MK-2206] | 0.7 | 1.8 |  |
| c1cc(SSc2ccns2)sn1 [NU 9056] | 2.0 | 1.0 |  |
| O=C(/C=C/N1C[C@H]2C[C@@H]1CN2c1ccccn1)c1ccccc1O [PFI 3] | 1.1 | 2.5 |  |
| O=C1C(=Cc2cccnc2)C(=O)c2ccccc21 [PRT 4165] | 1.0 | 1.4 |  |
| CC(=O)O[C@H]1C(=O)[C@@]2(C)[C@H]([C@H](OC(=O)c3ccccc3)[C@]3(O)C[C@H](OC(=O)[C@H](O)[C@@H](NC(=O)c4ccccc4)c4ccccc4)C(C)=C1C3(C)C)[C@]1(OC(C)=O)CO[C@@H]1C[C@@H]2O [Paclitaxel] | 0.03 | 0.02 |  |
| COc1ccc(CCc2nc3cc(-c4c(C)noc4C)ccc3n2C[C@H](C)N2CCOCC2)cc1Cl [SGC-CBP30] | 1.3 | 0.9 |  |
| O=C(CCCCCN1C(=O)c2cccc3cccc(c23)C1=O)NO [Scriptaid] | 1.5 | 1.4 |  |
| CC/C(=C(\c1ccccc1)c1ccc(OCCN(C)C)cc1)c1ccccc1 [Tamoxifen] | 1.0 | 1.0 |  |
| CC(/C=C/C(=O)NO)=C\[C@@H](C)C(=O)c1ccc(N(C)C)cc1 [Trichostatin A] | 1.8 | 2.6 |  |
| CCCC(CCC)C(=O)O [Valproic acid] | 1.4 | 1.3 |  |
| CCC1=C[C@@H]2CN(C1)Cc1c([nH]c3ccccc13)[C@@](C(=O)OC)(c1cc3c(cc1OC)N(C)[C@H]1[C@@](O)(C(=O)OC)[C@H](OC(C)=O)[C@]4(CC)C=CCN5CC[C@]31[C@@H]54)C2 [Vinorelbine] | 0.03 | 0.002 | cross-resistance of paclitaxel+carboplatin resistant variants (H1299 T18): cross-resistant; cross-resistance of paclitaxel+carboplatin resistant variant (H1355 T16): cross-resistant |
| Oc1nc(-c2ccc(C(F)(F)F)cc2)nc2c1CSCC2 [XAV939] | 2.7 | 1.0 |  |

From US11497740B2, “Use of Jumonji C demethylase inhibitors for the treatment and prevention of chemotherapy resistance and radioresistance in cancer” (THE BOARD OF REGENTS OF THE UNIVERSITY OF TEXAS SYSTEM, priority 2016, dated 2022)
